We go through one compound from patent US10561638B2, “Methods for treating dependence” (Biotie Therapies, Inc., priority 2007, dated 2020).

For this test, the target named is Ca2+/calmodulin protein kinase II. Description: Enzyme selectivity assay. It counts as biochemical. The method, then:
The activity of nepicastat at twelve selected enzymes and receptors was determined using established assays. Binding data were analyzed by iterative curve-fitting to a four parameter logistic equation. Ki values were calculated from IC50 values using the Cheng-Prusoff equation. Enzyme inhibitory activity was expressed as IC50 (concentration required to produce 50% inhibition of enzyme activity).
The activity of nepicastat at eleven different enzymes was determined using established assays. The affinity of nepicastat for thirteen selected receptors was determined by radioligand binding assays using standard filtration techniques and membrane preparations. Binding data were analyzed by iterative curve fitting to a four parameter logistic equation. Ki values were calculated using the Cheng-Prusoff equation.

Turning to `Cl.NCc1c[nH]c(=S)n1[C@H]1CCc2c(F)cc(F)cc2C1` [nepicastat, (S)-5-Aminomethyl-1-(5,7-difluoro-1,2,3,4-tetrahydronaphth-2-yl)-2,3-dihydro-2-thioxo-1H-imidazole hydrochloride], the IC50 is over 10 µM.
